Assays:
Assay type in all cases: biochemical
[1] = molecular target: T1, yeast topoisomerase 2 (yTop2) (Saccharomyces cerevisiae, UniProt P06786); assay: in vitro pUC18 plasmid linearization (DNA cleavage) assay, reference Top2 poison
T1 construct: gene TOP2
T1 sequence (P06786 1-1428): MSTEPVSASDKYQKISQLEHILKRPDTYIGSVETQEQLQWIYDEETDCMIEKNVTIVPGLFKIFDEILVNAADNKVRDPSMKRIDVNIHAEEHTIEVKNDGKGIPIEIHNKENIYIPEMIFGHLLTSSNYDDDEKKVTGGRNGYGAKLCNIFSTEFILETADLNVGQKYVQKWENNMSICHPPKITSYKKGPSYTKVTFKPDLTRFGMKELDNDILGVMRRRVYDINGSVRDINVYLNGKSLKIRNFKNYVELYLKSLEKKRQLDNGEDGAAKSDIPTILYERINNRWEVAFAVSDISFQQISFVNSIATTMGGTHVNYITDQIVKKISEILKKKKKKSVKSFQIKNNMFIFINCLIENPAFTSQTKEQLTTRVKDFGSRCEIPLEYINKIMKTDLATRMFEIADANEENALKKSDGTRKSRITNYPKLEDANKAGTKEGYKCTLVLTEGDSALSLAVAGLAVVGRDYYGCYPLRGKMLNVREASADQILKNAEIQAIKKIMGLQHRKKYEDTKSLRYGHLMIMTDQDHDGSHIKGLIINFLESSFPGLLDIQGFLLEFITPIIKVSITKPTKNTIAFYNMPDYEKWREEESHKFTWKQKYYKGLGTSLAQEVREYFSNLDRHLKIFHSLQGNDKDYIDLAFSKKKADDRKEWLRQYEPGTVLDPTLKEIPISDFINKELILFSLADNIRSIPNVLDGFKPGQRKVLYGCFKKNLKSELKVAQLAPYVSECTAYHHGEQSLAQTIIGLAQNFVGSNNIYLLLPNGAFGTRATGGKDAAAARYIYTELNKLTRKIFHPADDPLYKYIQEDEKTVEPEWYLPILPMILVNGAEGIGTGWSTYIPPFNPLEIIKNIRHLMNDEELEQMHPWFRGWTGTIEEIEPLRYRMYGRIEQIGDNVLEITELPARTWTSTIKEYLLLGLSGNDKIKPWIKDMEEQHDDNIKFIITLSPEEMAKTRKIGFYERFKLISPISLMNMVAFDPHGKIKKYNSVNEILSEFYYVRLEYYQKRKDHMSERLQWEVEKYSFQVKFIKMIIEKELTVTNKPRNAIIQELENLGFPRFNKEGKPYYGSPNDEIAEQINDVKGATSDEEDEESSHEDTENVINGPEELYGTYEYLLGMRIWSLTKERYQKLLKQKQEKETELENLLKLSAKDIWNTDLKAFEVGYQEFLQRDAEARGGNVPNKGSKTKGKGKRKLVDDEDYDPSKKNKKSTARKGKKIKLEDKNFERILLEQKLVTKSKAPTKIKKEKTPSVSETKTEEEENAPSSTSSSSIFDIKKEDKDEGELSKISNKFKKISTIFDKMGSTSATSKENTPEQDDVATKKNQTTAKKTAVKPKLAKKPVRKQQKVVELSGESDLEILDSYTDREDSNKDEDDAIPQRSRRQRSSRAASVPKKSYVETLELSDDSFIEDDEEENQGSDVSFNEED

[2] = molecular target: T2, human Top2α (Homo sapiens, UniProt P11388); assay: kinetoplast DNA decatenation assay with purified human TOP2-α
T2 construct: gene TOP2A

[3] = molecular target: T1, yeast topoisomerase 2 (yTop2); assay: in vitro pUC18 plasmid linearization (DNA cleavage) assay; supported by TOP2 overexpression hypersensitivity and resistant top2 mutants

T2 sequence (P11388 whole entry): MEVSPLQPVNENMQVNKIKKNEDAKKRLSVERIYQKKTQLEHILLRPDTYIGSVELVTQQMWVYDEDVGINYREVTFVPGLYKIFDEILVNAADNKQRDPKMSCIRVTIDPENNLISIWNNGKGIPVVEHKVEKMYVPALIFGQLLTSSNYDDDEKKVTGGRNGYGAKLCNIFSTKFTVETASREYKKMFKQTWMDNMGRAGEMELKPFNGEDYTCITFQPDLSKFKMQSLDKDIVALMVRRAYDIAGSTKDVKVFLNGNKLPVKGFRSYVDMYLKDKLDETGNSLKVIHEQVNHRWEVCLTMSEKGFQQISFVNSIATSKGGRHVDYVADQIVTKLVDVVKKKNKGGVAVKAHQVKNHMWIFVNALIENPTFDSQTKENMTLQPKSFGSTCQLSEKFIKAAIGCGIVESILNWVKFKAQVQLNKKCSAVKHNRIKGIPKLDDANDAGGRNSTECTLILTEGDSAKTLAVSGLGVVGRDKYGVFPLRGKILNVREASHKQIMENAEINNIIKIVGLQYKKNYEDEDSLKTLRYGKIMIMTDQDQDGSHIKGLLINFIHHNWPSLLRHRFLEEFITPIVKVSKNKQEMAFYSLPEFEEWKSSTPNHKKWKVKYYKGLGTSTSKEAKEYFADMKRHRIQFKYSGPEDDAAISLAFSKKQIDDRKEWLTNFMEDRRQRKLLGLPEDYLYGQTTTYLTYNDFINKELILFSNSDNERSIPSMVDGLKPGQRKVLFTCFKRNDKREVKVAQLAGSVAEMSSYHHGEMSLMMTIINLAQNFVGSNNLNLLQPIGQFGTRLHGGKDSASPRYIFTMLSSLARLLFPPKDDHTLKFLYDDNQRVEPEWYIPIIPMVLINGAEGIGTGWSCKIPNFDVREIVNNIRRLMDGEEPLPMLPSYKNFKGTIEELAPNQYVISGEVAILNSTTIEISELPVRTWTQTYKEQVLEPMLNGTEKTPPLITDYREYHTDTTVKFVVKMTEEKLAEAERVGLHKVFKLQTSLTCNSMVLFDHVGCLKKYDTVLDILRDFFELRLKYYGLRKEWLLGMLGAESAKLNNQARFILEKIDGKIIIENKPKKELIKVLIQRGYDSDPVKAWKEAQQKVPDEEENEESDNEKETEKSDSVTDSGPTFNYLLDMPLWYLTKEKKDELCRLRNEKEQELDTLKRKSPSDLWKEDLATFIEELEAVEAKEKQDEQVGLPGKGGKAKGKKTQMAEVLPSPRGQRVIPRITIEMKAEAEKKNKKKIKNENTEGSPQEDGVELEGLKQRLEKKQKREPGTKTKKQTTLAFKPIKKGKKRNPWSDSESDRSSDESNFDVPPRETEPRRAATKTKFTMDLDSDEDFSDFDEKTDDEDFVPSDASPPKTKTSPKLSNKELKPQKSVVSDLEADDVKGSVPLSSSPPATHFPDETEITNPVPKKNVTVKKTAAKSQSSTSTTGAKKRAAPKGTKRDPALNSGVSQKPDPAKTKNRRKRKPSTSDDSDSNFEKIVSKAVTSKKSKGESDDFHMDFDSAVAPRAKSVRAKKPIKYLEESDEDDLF

COc1cc([C@@H]2c3cc4c(cc3[C@@H](O[C@@H]3O[C@@H]5CO[C@@H](C)O[C@H]5[C@H](O)[C@H]3O)[C@H]3COC(=O)[C@H]23)OCO4)cc(OC)c1O [ETOP, etoposide]
in vitro pUC18 plasmid linearization (DNA cleavage) assay, reference Top2 poison [1]: formation by yTop2 of DSBs in plasmid DNA (Fig. 7A & B), albeit less efficiently than etoposide

c1ccc2nc3c(nc2c1)[nH]c1ccccc13 [LS1, 6H-Indolo [2,3-b] quinoxaline]
IC50 [2]: 3 µM
in vitro pUC18 plasmid linearization (DNA cleavage) assay; supported by TOP2 ove [3]: LS1 promotes the in vitro formation by yTop2 of DSBs in plasmid DNA (Fig. 7A & B)
